A short description of series [1]: Solubility Test (35 wt% solution in isopropylalcohol shaken with water, brine or heptane). In kind it is physicochemical. How it is done:
The active material under test was made up into a 35 wt% solution in isopropylalcohol (IPA). 0.3 ml of this solution was shaken with 10 ml of each of the liquids in which solubility is to be tested: water, 5 wt% NaCl solution (brine) and heptane. The mixture was observed after 30 minutes and 24 hours.

Series [2] is described as follows: Emulsion Test (3 wt% brine / heptane). More on the design: Emulsion thickness after 30 mins: unit not given here. In kind it is physicochemical. The settings on record: for Time to break emulsion: 1 ml of 35 wt% IPA solution, 50 ml 3 wt% brine, 50 ml heptane; for Appearance after 30 mins, hydrocarbon: hydrocarbon layer; for Appearance after 30 mins, water: water layer. How it is done: 1 ml of the solutions used for Test A was shaken with 50 ml of 3 wt% brine and 50 ml of heptane for 1 minute in a 150 ml bottle. The emulsion was observed, and the time noted for the emulsion to break and form a clean interface with clear liquid layers. If at 30 minutes this had not occurred, the appearance was recorded together with the thickness of any persisting emulsion.

Series [3] can be described thus: Corrosion Test 1 (dynamic wheel test; 3 wt% brine/Mentor 28; CO2 + H2S). The settings on record: 24 h, 70° C. How it is done: (§1) For each compound three mild steel coupons (approximately 100 mm×12 mm×1.5 mm) were tested at each concentration. Each was contacted in a 250 ml bottle with 200 ml of a test fluid either saturated with a carbon dioxide at 20° C. or containing 100 ppm hydrogen sulphide or having both CO2 and H2 S present in those amounts. The test fluid was treated with a 30% aqueous solution of the compound under test at 2, 10, 50 and 250 ppm except where indicated to the contrary. The coupon was subjected to a dynamic wheel test in which the bottle was mounted radially on the periphery of 650 mm diameter wheel which was rotated at about 40 rpm for 24 hours at 70° C. The weight loss was obtained, and also measured in a control experiment where no inhibitor was present. From this the % protection was calculated as % reduction in weight loss.
Test fluid: 100 ml 3 wt% brine/100 ml Mentor 28 (Mentor®28 is a depolarised kerosene available from Exxon Chemical Company)
(§2) Corrosives: Saturated CO2 +100 ppm H2 S

Series [4] can be described thus: Corrosion Test 2 (dynamic wheel test; 3 wt% brine; CO2 + H2S). The note with it: 24 h, 70° C. How it is done: as §1
Test Fluid: 200 ml 3 wt% brine
as §2

A short description of series [5]: Corrosion Test 4 (dynamic wheel test; 3 wt% brine + Mentor 28; H2S). The note with it: 24 h, 70° C. How it is done: as §1
(§3) Test fluid: 100 ml 3 wt% brine+100 ml Mentor 28
Corrosives: 100 ppm H2 S (prior nitrogen purge)

Series [6] in a line: Film persistency corrosion test. The note with it: CO2 + H2S, 24 h, 70° C. On the procedure:
[…] A test fluid made up of equal proportions of 3 wt% brine and Mentor 28 was used, saturated with CO2 and containing 100 ppm H2 S as corrosives. Coupons were used as described for the previous corrosion test. A coupon was first immersed in test fluid containing corrosives and the inhibitor under test for 1 hour, then rinsed for 1 hour in a similar test fluid containing no inhibitor and finally transferred to a further test fluid again containing no inhibitor in which the dynamic wheel test was carried out at 70° C. for 24 hours.

A short description of series [7]: Corrosion Test 3 (dynamic wheel test; 3 wt% brine + Mentor 28; CO2 only). The settings on record: 24 h, 70° C. How it is done: as §1, §3
Corrosives: Saturated CO2 only

Setting [8] is: 50 ml 3 wt% brine/50 ml heptane.
The mark [9] stands for this setting: 0.3 ml of 35 wt% IPA solution in 10 ml heptane, 30 minutes and 24 hours.
[10] abbreviates: 0.3 ml of 35 wt% IPA solution in 10 ml water, observed after 30 minutes and 24 hours.
Where [11] appears, read: 0.3 ml of 35 wt% IPA solution in 10 ml 5 wt% NaCl solution, 30 minutes and 24 hours.

Read-outs that look alike come from different tables or passages of the source. A value given as a limit tells only on which side of the number the result lay.

In the case of `CCCCCCNCCc1ccccn1` [Example 1], in series [1], the “SOLUBILITY IN: Brine” value is reported as “S”. Further, the “SOLUBILITY IN: Heptane” value in series [1] was “S”. The “SOLUBILITY IN: Water” value in series [1] is “S”. For the same molecule, the “Time to break emulsion” value in series [2] was 30 min. Also, the “Appearance after 30 mins, hydrocarbon” value in series [2] (setting [8]) was “clear”. In series [2] (setting [8]), the “Appearance after 30 mins, water” value is “clear”. Further, the “% Protection” value in series [3] (2 ppm, 30% solution) is recorded as 15%; in series [3] (10 ppm, 30% solution), 73%; in series [3] (50 ppm, 30% solution) it was 79%; in series [3] (250 ppm, 30% solution), 91%; in series [4] (2 ppm), 13%; in series [4] (10 ppm), 57%. The “% Protection” value is listed as 83% in series [4] (50 ppm); 93% in series [4] (250 ppm); 0% in series [5] (2 ppm); 22% in series [5] (10 ppm); 55% in series [5] (50 ppm); 55% in series [5] (250 ppm). Also, the figures for the “% Protection” value in series [6] (500 ppm), in series [6] (1000 ppm) and in series [6] (5000 ppm) were 18%, 25% and 17%, respectively.

As to `CCCCCCCCCCCCCCCCNCCc1ccccn1` [Example 6], in series [1] (setting [9]), the “SOLUBILITY IN: Heptane” value is given as “S”. For the same molecule, the “SOLUBILITY IN: Water” value in series [1] (setting [10]) is “S”. In addition, the “Time to break emulsion” value in series [2] was greater than 30 min. Moreover, in series [2] (setting [8]), the “Emulsion thickness after 30 mins” value worked out at 1.0. In addition, the “Appearance after 30 mins, hydrocarbon” value in series [2] (setting [8]) was “hazy”. Also, in series [2] (setting [8]), the “Appearance after 30 mins, water” value is “hazy”. Also, the “% Protection” value turned out to be 7% in series [3] (2 ppm, 30% solution); 72% in series [3] (10 ppm, 30% solution); 89% in series [3] (50 ppm, 30% solution); 98% in series [3] (250 ppm, 30% solution); 20% in series [4] (2 ppm); 41% in series [4] (10 ppm). The “% Protection” value stood at 93% in series [4] (50 ppm); 97% in series [4] (250 ppm); 0% in series [5] (2 ppm); 21% in series [5] (10 ppm); 58% in series [5] (50 ppm); 70% in series [5] (250 ppm).

As to `CCCCCCCCCCCCCCCCCCNCCc1ccccn1` [Example 7], in series [1] (setting [9]), the “SOLUBILITY IN: Heptane” value is listed as “S”. Besides, the “SOLUBILITY IN: Water” value in series [1] (setting [10]) is given as “S”. The “Time to break emulsion” value in series [2] was greater than 30 min. Moreover, in series [2] (setting [8]), the “Appearance after 30 mins, hydrocarbon” value is recorded as “emulsified”. Further, in series [2] (setting [8]), the “Appearance after 30 mins, water” value was “clear”. Besides, the “% Protection” value is 13% in series [3] (2 ppm, 30% solution); 52% in series [3] (10 ppm, 30% solution); 87% in series [3] (50 ppm, 30% solution); 95% in series [3] (250 ppm, 30% solution); 81% in series [4] (2 ppm); 89% in series [4] (10 ppm). The “% Protection” value in series [4] (50 ppm) is listed as 99%; in series [4] (250 ppm), 99%; in series [7] (2 ppm), 2%; in series [7] (10 ppm), 22%; in series [7] (50 ppm) it was 48%; in series [7] (250 ppm), 67%. The figures for the “% Protection” value in series [6] (500 ppm), in series [6] (1000 ppm) and in series [6] (5000 ppm) were 13%, 10% and 19%, respectively.

Regarding `NCCNCCc1ccccn1` [Example 13], the “SOLUBILITY IN: Brine” value in series [1] (setting [11]) is given as “S”. The “SOLUBILITY IN: Heptane” value in series [1] (setting [9]) is on record as “S”. The “SOLUBILITY IN: Water” value in series [1] (setting [10]) is “S”. Besides, the “Time to break emulsion” value in series [2] is greater than 30 min. In addition, in series [2] (setting [8]), the “Appearance after 30 mins, hydrocarbon” value was “clear”. For the same molecule, the “Appearance after 30 mins, water” value in series [2] (setting [8]) was “hazy”. The “% Protection” value in series [3] (2 ppm, * active material added as undiluted compound) was found to be 43%; in series [3] (10 ppm, * active material added as undiluted compound), 67%; in series [3] (50 ppm, * active material added as undiluted compound), 82%; in series [3] (250 ppm, * active material added as undiluted compound), 92%; in series [4] (2 ppm), 40%; in series [4] (10 ppm), 42%. The “% Protection” value was 74% in series [4] (50 ppm); 89% in series [4] (250 ppm); 0% in series [7] (2 ppm); 10% in series [7] (10 ppm); 19% in series [7] (50 ppm); 23% in series [7] (250 ppm). The “% Protection” value in series [5] (10 ppm) amounted to 40%; in series [5] (250 ppm), 57%.

Regarding `NCCNCCNCCc1ccccn1` [Example 15], the “SOLUBILITY IN: Brine” value in series [1] (setting [11]) is reported as “S”. For the same molecule, the “SOLUBILITY IN: Water” value in series [1] (setting [10]) is “S”. Moreover, the “Time to break emulsion” value in series [2] amounted to 10 min. Besides, the “Appearance after 30 mins, hydrocarbon” value in series [2] (setting [8]) is given as “clear”. For the same molecule, the “Appearance after 30 mins, water” value in series [2] (setting [8]) is on record as “clear”. Also, the “% Protection” value in series [3] (2 ppm, 30% solution) is given as 32%; in series [3] (10 ppm, 30% solution), 72%; in series [3] (50 ppm, 30% solution), 80%; in series [3] (250 ppm, 30% solution) it was 87%; in series [4] (2 ppm), 22%; in series [4] (10 ppm), 63%. In addition, the “% Protection” value in series [4] (50 ppm) is 81%; in series [4] (250 ppm), 87%; in series [6] (500 ppm), 13%; in series [6] (1000 ppm), 11%; in series [6] (5000 ppm), 17%.

As for `NCCNCCNCCNCCc1ccccn1` [Example 16], in series [1] (setting [11]), the “SOLUBILITY IN: Brine” value is reported as “S”. For the same molecule, the “SOLUBILITY IN: Heptane” value in series [1] (setting [9]) is “S/D”. The “SOLUBILITY IN: Water” value in series [1] (setting [10]) is recorded as “S”. In addition, the “Time to break emulsion” value in series [2] was 10 min. For the same molecule, the “Appearance after 30 mins, hydrocarbon” value in series [2] (setting [8]) is “clear”. In series [2] (setting [8]), the “Appearance after 30 mins, water” value was “clear”. For the same molecule, the “% Protection” value in series [3] (2 ppm, 30% solution) was 32%; in series [3] (10 ppm, 30% solution), 72%; in series [3] (50 ppm, 30% solution), 81%; in series [3] (250 ppm, 30% solution), 89%; in series [4] (2 ppm), 37%; in series [4] (10 ppm), 59%. Further, the “% Protection” value in series [4] (50 ppm) came out at 81%; in series [4] (250 ppm), 89%; in series [5] (2 ppm), 10%; in series [5] (10 ppm), 48%; in series [5] (50 ppm), 56%; in series [5] (250 ppm), 61%.

Consider `NCCNCCNCCc1ccncc1` [Example 34], for which the “SOLUBILITY IN: Brine” value in series [1] (setting [11]) is on record as “S”. In addition, the “SOLUBILITY IN: Water” value in series [1] (setting [10]) is listed as “S”. The “Time to break emulsion” value in series [2] worked out at 1 min. Further, the “Appearance after 30 mins, hydrocarbon” value in series [2] (setting [8]) is “clear”. In addition, the “Appearance after 30 mins, water” value in series [2] (setting [8]) is “clear”. Further, the “% Protection” value came out at 22% in series [3] (2 ppm, 30% solution); 50% in series [3] (10 ppm, 30% solution); 66% in series [3] (50 ppm, 30% solution); 80% in series [3] (250 ppm, 30% solution); 18% in series [4] (2 ppm); 26% in series [4] (10 ppm). The “% Protection” value is 48% in series [4] (50 ppm); 69% in series [4] (250 ppm); 6% in series [7] (2 ppm); 11% in series [7] (10 ppm); 13% in series [7] (50 ppm); 18% in series [7] (250 ppm). In addition, the “% Protection” value turned out to be 20% in series [5] (2 ppm), 45% in series [5] (10 ppm), 62% in series [5] (50 ppm) and 67% in series [5] (250 ppm).

Consider `NCCNCCNCCNCCc1ccncc1` [Example 35], for which, in series [1] (setting [11]), the “SOLUBILITY IN: Brine” value is reported as “S”. In addition, the “SOLUBILITY IN: Water” value in series [1] (setting [10]) was “S”. For the same molecule, the “Time to break emulsion” value in series [2] is 1 min. The “Appearance after 30 mins, hydrocarbon” value in series [2] (setting [8]) is “clear”. The “Appearance after 30 mins, water” value in series [2] (setting [8]) is “clear”. Also, the results for the “% Protection” value in series [6] (500 ppm), in series [6] (1000 ppm) and in series [6] (5000 ppm) were 19%, 18% and 20%, respectively.

(Values after patent US4515708A, “Corrosion inhibitors” (Exxon Research & Engineering Co., priority 1982, dated 1985).)
